The assay addresses T1, cloned human CRF1 receptors (Homo sapiens, UniProt P34998).
T1 construct: the coding region is amplified by PCR from start to stop codons; expressed in transfected cells; host or cells: 293EBNA cells (episomal vector phchCRFR, hygromycin selection); membrane homogenate
T1 sequence (P34998 24-415): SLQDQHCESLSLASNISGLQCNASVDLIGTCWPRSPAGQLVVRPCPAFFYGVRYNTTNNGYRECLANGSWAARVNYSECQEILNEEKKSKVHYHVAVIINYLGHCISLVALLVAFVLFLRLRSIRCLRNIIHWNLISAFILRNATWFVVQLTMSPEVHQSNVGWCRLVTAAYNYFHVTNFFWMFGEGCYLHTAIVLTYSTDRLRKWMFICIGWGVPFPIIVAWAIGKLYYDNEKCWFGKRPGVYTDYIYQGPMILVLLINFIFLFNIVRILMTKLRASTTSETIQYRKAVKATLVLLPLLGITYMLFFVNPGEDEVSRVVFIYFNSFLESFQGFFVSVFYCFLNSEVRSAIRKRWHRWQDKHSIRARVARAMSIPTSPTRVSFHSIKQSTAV
Briefly: CRF1 receptor binding assay (inhibition of 125I-ovine-CRF binding to membranes of 293EBNA cells transfected with hCRFR1). The text has this:
Provided herein is an example of a CRF1 receptor binding assay that can be used for the evaluation of biological activity of compounds of the present invention. The example also includes isolation of cell membranes containing cloned human CRF1 receptors for use in the binding assay.
Messenger RNA is isolated from human hippocampus by standard techniques. The mRNA is reverse transcribed using oligo (dt) 12–18 and the coding region is amplified by PCR from start to stop codons The resulting PCR fragment is cloned into the EcoRV site of pGEMV, from whence the insert is reclaimed using XhoI+XbaI and cloned into the XhoI+XbaI sites of vector pm3ar (which contains a CMV promoter, the SV40 ‘t’ splice and early poly A signals, an Epstein-Barr viral origin of replication, and a hygromycin selectable marker). […] Cells surviving 4 weeks of selection in hygromycin are pooled, adapted to growth in suspension, and used to generate membranes for the binding assay described below. Individual aliquots containing approximately 1×10^8 of the suspended cells are then centrifuged to form a pellet and frozen.
The homogenate is centrifuged at 40,000×g for 12 min and the resulting pellet rehomogenized in 10 mL of tissue buffer. After another centrifugation at 40,000×g for 12 min, the pellet is resuspended to a protein concentration of 360 μg/ml to be used in the assay.
Binding assays are performed in 96 well plates; each well having a 300 μL capacity. […] Plates are then allowed to incubate at room temperature for 2 hours before filtering the incubate over GF/F filters (presoaked with 0.3% polyethyleneimine) using an appropriate cell harvester. Filters are rinsed 2 times with ice cold assay buffer before removing individual filters and assessing them for radioactivity on a gamma counter.

Setting [1] is: IC50 ranges, class symbols a-e, read-out: IC50 Range* (potency of binding to CRF1 receptor).
[2] abbreviates: IC50 ranges as class symbols a-e, read-out: IC50 Range* (potency of binding to CRF1 receptor).

The structures appear in SMILES notation. Where two headings read alike, the source gives them in different places.

The record followed here is patent US7067658B2, “Pyridino and pyrimidino pyrazinones” (Bristol-Myers Squibb Company, priority 2002, dated 2006).

For `CCCC(C)n1c(=O)c(C)nc2c(-c3ccc(Cl)cc3Cl)ccnc21` (racemic) [Example 2, (R,S)-8-(2,4-dichloro-phenyl)-2-methyl-4-(1-methyl-butyl)-4H-pyrido[2,3-b]pyrazin-3-one], the IC50 under setting [1] was in the range of 0.01 to 0.1 µM. As to `CCCC(C1CC1)n1c(=O)c(C)nc2c(-c3ccc(Cl)cc3Cl)ccnc21` (racemic) [Example 5, (R,S)-4-(1-cyclopropyl-butyl)-8-(2,4-dichloro-phenyl)-2-methyl-4H-pyrido[2,3-b]pyrazin-3-one], under setting [1], the IC50 is 0.001 to 0.01 µM. Same read-out and setting: for `COCC(C)n1c(=O)c(C)nc2c(-c3ccc(Cl)cc3Cl)ccnc21` (racemic) [Example 9, (R,S)-8-(2,4-dichloro-phenyl)-4-(2-methoxy-1-methyl-ethyl)-2-methyl-4H-pyrido[2,3-b]pyrazin-3-one] the value was 0.01 to 0.1 µM; for `CCC(COC)n1c(=O)c(C)nc2c(-c3ccc(Cl)cc3Cl)ccnc21` (racemic) [Example 10, (R,S)-8-(2,4-dichloro-phenyl)-4-(1-methoxymethyl-propyl)-2-methyl-4H-pyrido[2,3-b]pyrazin-3-one], 0.001 to 0.01 µM; for `CCCC(C1CC1)n1c(=O)c(C)nc2c(-c3ccc(OC)cc3C)ccnc21` (racemic) [Example 69, (R,S)-4-(1-cyclopropyl-butyl)-8-(4-methoxy-2-methyl-phenyl)-2-methyl-4H-pyrido[2,3-b]pyrazin-3-one], 0.001 to 0.01 µM. Regarding `CCCCC(CC)n1c(=O)c(C)nc2c(-c3ccc(OC)nc3C)ccnc21` (racemic) [Example 97, (R,S)-4-(1-ethyl-pentyl)-8-(6-methoxy-2-methyl-pyridin-3-yl)-2-methyl-4H-pyrido[2,3-b]pyrazin-3-one], the concentration for half-maximal inhibition (IC50) under setting [1] lay within 0.1 to 1 µM.

Turning to `CCCC(C1CC1)n1c(=O)c(C)nc2c(-c3ccc(OC)nc3C)ccnc21` (racemic) [Example 101, (R,S)-4-(1-cyclopropyl-butyl)-8-(6-methoxy-2-methyl-pyridin-3-yl)-2-methyl-4H-pyrido[2,3-b]pyrazin-3-one], the half-maximal inhibitory concentration (IC50) under setting [1] is 0.01 to 0.1 µM. The same measure, in the same setting: under `CCC(C)n1c(=O)c(C)nc2c(-c3ccc(OC(F)F)cc3Cl)ccnc21` (racemic) [Example 113, (R,S)-4-sec-butyl-8-(2-chloro-4-difluoromethoxy-phenyl)-2-methyl-4H-pyrido[2,3-b]pyrazin-3-one] stands 0.01 to 0.1 µM; under `CCCC(C1CC1)n1c(=O)c(C)nc2c(-c3ccc(OC(F)F)cc3Cl)ccnc21` (racemic) [Example 117, (R,S)-8-(2-Chloro-4-difluoromethoxy-phenyl)-4-(1-cyclopropyl-butyl)-2-methyl-4H-pyrido[2,3-b]pyrazin-3-one], 0.001 to 0.01 µM. Still for that read-out and setting: under `CCC(C)n1c(=O)c(C)nc2c(-c3ccc(Cl)cc3Cl)ncnc21` (racemic) [Example 546, (R,S)-8-sec-Butyl-4-(2,4-dichloro-phenyl)-6-methyl-8H-pteridin-7-one] stands 0.1 to 1 µM; under `Cc1nc2c(-c3ccc(Cl)cc3Cl)ccnc2n(CC(C)C)c1=O` [Example 1, (R,S)-8-(2,4-dichloro-phenyl)-4-isobutyl-2-methyl-4H-pyrido[2,3-b]pyrazin-3-one], above 1 µM; under `CCCC(CCC)n1c(=O)c(C)nc2c(-c3ccc(OC)cc3Cl)ccnc21` [Example 18, (R,S)-8-(2-chloro-4-methoxy-phenyl)-2-methyl-4-(1-propyl-butyl)-4H-pyrido[2,3-b]pyrazin-3-one], 0.001 to 0.01 µM. As to `CCC(COC)n1c(=O)c(C)nc2c(-c3cc(F)c(OC)cc3Cl)ccnc21` (stereo not shown) [Example 250, 8-(2-Chloro-5-fluoro-4-methoxy-phenyl)-4-(1-methoxymethyl-propyl)-2-methyl-4H-pyrido[2,3-b]pyrazin-3-one], where the note is “Potency of binding to CRF1 receptor, listed as IC50 ranges, read-out: IC50 Range*”, the concentration for half-maximal inhibition (IC50) is 0.001 to 0.01 µM. For the compound `CCC(C1CC1)n1c(=O)c(C)nc2c(-c3cc(Cl)c(OC)cc3C)ccnc21` (stereo not shown) [Example 452, 8-(5-Chloro-4-methoxy-2-methyl-phenyl)-4-(1-cyclopropyl-propyl)-2-methyl-4H-pyrido[2,3-b]pyrazin-3-one], under setting [2], the 50% inhibitory concentration (IC50) was below 0.001 µM. Consider `CCC(COC)n1c(=O)c(C)nc2c(-c3cc(Cl)c(OC)cc3C)ccnc21` (stereo not shown) [Example 459, 8-(5-Chloro-4-methoxy-2-methyl-phenyl)-4-(1-methoxymethyl-propyl)-2-methyl-4H-pyrido[2,3-b]pyrazin-3-one], for which the IC50 under setting [2] was 0.001 to 0.01 µM.

As to `CCC(C1CC1)n1c(=O)c(C)nc2c(-c3cc(C)c(OC)cc3Cl)ccnc21` (stereo not shown) [Example 484, 8-(2-Chloro-4-methoxy-5-methyl-phenyl)-4-(1-cyclopropyl-propyl)-2-methyl-4H-pyrido[2,3-b]pyrazin-3-one], the half-maximal inhibitory concentration (IC50) under setting [2] was below 0.001 µM. The same measure, in the same setting: under `CCC(COC)n1c(=O)c(C)nc2c(-c3cc(C)c(OC)cc3Cl)ccnc21` (stereo not shown) [Example 491, 8-(2-Chloro-4-methoxy-5-methyl-phenyl)-4-(1-methoxymethyl-propyl)-2-methyl-4H-pyrido[2,3-b]pyrazin-3-one] stands below 0.001 µM.

Turning to `CCC(C1CC1)n1c(=O)c(C)nc2c(-c3cc(F)c(N(C)C)cc3Cl)ccnc21` (stereo not shown) [Example 500, 8-(2-Chloro-4-dimethylamino-5-fluoro-phenyl)-4-(1-cyclopropyl-propyl)-2-methyl-4H-pyrido[2,3-b]pyrazin-3-one], the IC50 under setting [2] is below 0.001 µM.

Take `COCC(C)n1c(=O)c(C)nc2c(-c3cc(F)c(N(C)C)cc3Cl)ccnc21` (stereo not shown) [Example 506, 8-(2-Chloro-4-dimethylamino-5-fluoro-phenyl)-4-(2-methoxy-1-methyl-ethyl)-2-methyl-4H-pyrido[2,3-b]pyrazin-3-one]: under setting [2], the half-maximal inhibitory concentration (IC50) lay within 0.001 to 0.01 µM.

As for `CCC(COC)n1c(=O)c(C)nc2c(-c3cc(F)c(N(C)C)cc3Cl)ccnc21` (stereo not shown) [Example 507, 8-(2-Chloro-4-dimethylamino-5-fluoro-phenyl)-4-(1-methoxymethyl-propyl)-2-methyl-4H-pyrido[2,3-b]pyrazin-3-one], under setting [2], the 50% inhibitory concentration (IC50) was below 0.001 µM. Regarding `CCCC(CCC)n1c(=O)c(C)nc2c(-c3ccc(OC)cc3Cl)ncnc21` [Example 563, 4-(2-Chloro-4-methoxy-phenyl)-6-methyl-8-(1-propyl-butyl)-8H-pteridin-7-one], under setting [1], the IC50 fell in the range of 0.001 to 0.01 µM. Regarding `Cc1nc2c(-c3ccc(OC(F)(F)F)cc3Cl)ncnc2n(C(C)C2CC2)c1=O` (stereo not shown) [Example 1062, 4-(2-Chloro-4-trifluoromethoxy-phenyl)-8-(1-cyclopropyl-ethyl)-6-methyl-8H-pteridin-7-one], the half-inhibitory concentration (IC50) (IC50 ranges as class symbols a-e, read-out: IC50 Range (potency of binding to CRF1 receptor)) fell in the range of 0.1 to 1 µM. `CCC(C1CCC1)n1c(=O)c(C)nc2c(-c3ccc(OC)cc3Cl)ccnc21` (stereo not shown) [compound 23]: the IC50 under setting [1] lay within 0.001 to 0.01 µM. Turning to `COCC(C)n1c(=O)c(C)nc2c(-c3ccc(OC)cc3Cl)ccnc21` (stereo not shown) [compound 25], the IC50 under setting [1] is 0.01 to 0.1 µM. Same read-out and setting: for `COCC(C)n1c(=O)c(C)nc2c(-c3ccc(OC)nc3C)ncnc21` (stereo not shown) [compound 650] the value was above 1 µM.

What is called IC50 is the midpoint of a concentration-inhibition curve.
